From patent publication US20090092642A1, “Skin and/or Hair Products, Containing Compounds With an Isoprenoid Structure” (BEIERSDORF AG, priority 2004, published 2009) come the findings set out here.

In the assay the test system is primary normal human melanocytes. As to the kind of experiment: Melanogenesis assay (14C-tyrosine incorporation) after 3 days of incubation with test substance. The format is cell-based. Particulars: 3 days incubation. As for the experimental part:
A melanogenesis assay was carried out after 3 days of incubation of primary normal human melanocytes with test substance compared to control. The figures listed in the table give the melanogenesis rates (measured as ^14C-tyrosine incorporation) based on the untreated control (=100%). It results from this that the melanogenesis, i.e., the process of melanine synthesis rises to 217%, 128% or 121%, when the melanocytes are cultivated in the presence of the (2E/Z,6E/Z)-3,7,11-trimethyldodeca-2,6,10-trienal (n=3).
A melanogenesis assay was carried out after 3 days of incubation of primary normal human melanocytes with test substance compared to control. The figures listed in the table give the melanogenesis rates (measured as ^14C-tyrosine incorporation) based on the untreated control (=100%). It results from this that the melanogenesis, i.e., the process of melanine synthesis rises to 135% or 113% when the melanocytes are cultivated in the presence of the N-[(1E/Z,2E/Z)-3,7-dimethylocta-2,6-dien-1-ylidene]butane-1-amine (n=2).
A melanogenesis assay was carried out after 3 days of incubation of primary normal human melanocytes with test substance compared to control. The figures listed in the table give the melanogenesis rates (measured as ^14C-tyrosine incorporation) based on the untreated control (=100%). It results from this that the melanogenesis, i.e., the process of melanine synthesis rises to 137% or 127% when the melanocytes are cultivated in the presence of the (2E/Z)-3,7-dimethylocta-2,6-dienal (n=2-6).
A melanogenesis assay was carried out after 3 days of incubation of primary normal human melanocytes with test substance compared to control. The figures listed in the table give the melanogenesis rates (measured as ^14C-tyrosine incorporation) based on the untreated control (=100%). It results from this that the melanogenesis, i.e., the process of melanine synthesis rises to 131%, 130% or 117% when the melanocytes are cultivated in the presence of the (1E/Z,2E/Z)-3,7-dimethylocta-2,6-dienal oxime (n=2).

As to `CC(C)=CCC/C(C)=C/C=N/O` [(1E/Z,2E/Z)-3,7-dimethylocta-2,6-dienal oxime], the “melanogenesis rate (measured as 14C-tyrosine incorporation) based on the untreated control (=100%), X transverse” value (from here on “melanogenesis rate … (=100%), X transverse”) is, setting by setting: (0.01 μg/ml, n=2) 117%; (0.1 μg/ml, n=2) 130%; (1 μg/ml, n=2) 131%.

Turning to `CC(C)=CCC/C(C)=C/C=O` [(2E/Z)-3,7-dimethylocta-2,6-dienal], the “melanogenesis rate … (=100%), X transverse” value reads like this: (0.001 μg/ml, n=2-6) 127%; (0.01 μg/ml, n=2-6) 137%.

Take `CC(C)=CCC/C(C)=C/CC/C(C)=C/C=O` [(2E/Z,6E/Z)-3,7,11-trimethyldodeca-2,6,10-trienal]: the “melanogenesis rate … (=100%), X transverse” value is, setting by setting: (0.1 μg/ml (first column so headed), n=3) 128%; (0.1 μg/ml (second column so headed), n=3) 121%; (1 μg/ml, n=3) 217%.

For the molecule `CCCC/N=C/C=C(\C)CCC=C(C)C` [N-[(1E/Z,2E/Z)-3,7-dimethylocta-2,6-dien-1-ylidene]butane-1-amine], the “melanogenesis rate … (=100%), X transverse” value is, setting by setting: (0.1 μg/ml, n=2) 113%; (1 μg/ml, n=2) 135%.
